Measured values as given in patent US8871753B2, “Macrocyclic compounds and their use as kinase inhibitors” (Incyte Corporation, priority 2008, dated 2014).
Counter-ions that a name gives are not always drawn. Like-named read-outs stand apart in the source and are kept apart here.

Tests used:
Type in all cases: biochemical
TYK2 = TYK2 (Homo sapiens, UniProt P29597); assay: TYK2 kinase inhibition (Table A1)
[1] = target: T1, human JAK2 (a.a. 828-1132) (Homo sapiens, UniProt O60674); assay: In vitro JAK kinase assay (HTRF, phosphorylation of a biotinylated peptide), JAK2
T1 construct: JAK2 (a.a. 828-1132); His tag (N); made in house; host or cells: insect cells (baculovirus)
In short: (§1)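 Kinase reactions ran at room temperature for 1 h with ATP matched per isoform (JAK1 90 μM, JAK2 30 μM, JAK3 3 μM). After an EDTA stop, the phosphorylated biotin-peptide was read by HTRF using Eu-Py20 and SA-APC after 40 min binding.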

[2] = target: T2, human JAK3 (a.a. 781-1124) (Homo sapiens, UniProt P52333); assay: In vitro JAK kinase assay (HTRF, phosphorylation of a biotinylated peptide), JAK3
T2 construct: JAK3 (a.a. 781-1124); His tag (N); made in house; host or cells: insect cells (baculovirus)
In short: as §1

[3] = target: T3, human JAK1 (a.a. 837-1142) (Homo sapiens, UniProt P23458); assay: In vitro JAK kinase assay (HTRF, phosphorylation of a biotinylated peptide), JAK1; conditions: read-out: JAK1 IC50
T3 construct: human JAK1 (a.a. 837-1142); His tag (N); made in house; host or cells: insect cells (baculovirus)
In short: as §1

T1 sequence (O60674 828-1132): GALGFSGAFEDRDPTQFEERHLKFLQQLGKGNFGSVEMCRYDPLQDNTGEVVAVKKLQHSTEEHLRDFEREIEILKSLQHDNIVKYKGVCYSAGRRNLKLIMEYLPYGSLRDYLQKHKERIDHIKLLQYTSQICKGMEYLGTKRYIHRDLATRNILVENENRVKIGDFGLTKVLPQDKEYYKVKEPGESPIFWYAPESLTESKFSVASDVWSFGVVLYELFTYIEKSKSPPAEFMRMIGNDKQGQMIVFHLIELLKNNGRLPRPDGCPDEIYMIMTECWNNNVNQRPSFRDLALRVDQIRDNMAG
TYK2, sequence (P29597 whole entry): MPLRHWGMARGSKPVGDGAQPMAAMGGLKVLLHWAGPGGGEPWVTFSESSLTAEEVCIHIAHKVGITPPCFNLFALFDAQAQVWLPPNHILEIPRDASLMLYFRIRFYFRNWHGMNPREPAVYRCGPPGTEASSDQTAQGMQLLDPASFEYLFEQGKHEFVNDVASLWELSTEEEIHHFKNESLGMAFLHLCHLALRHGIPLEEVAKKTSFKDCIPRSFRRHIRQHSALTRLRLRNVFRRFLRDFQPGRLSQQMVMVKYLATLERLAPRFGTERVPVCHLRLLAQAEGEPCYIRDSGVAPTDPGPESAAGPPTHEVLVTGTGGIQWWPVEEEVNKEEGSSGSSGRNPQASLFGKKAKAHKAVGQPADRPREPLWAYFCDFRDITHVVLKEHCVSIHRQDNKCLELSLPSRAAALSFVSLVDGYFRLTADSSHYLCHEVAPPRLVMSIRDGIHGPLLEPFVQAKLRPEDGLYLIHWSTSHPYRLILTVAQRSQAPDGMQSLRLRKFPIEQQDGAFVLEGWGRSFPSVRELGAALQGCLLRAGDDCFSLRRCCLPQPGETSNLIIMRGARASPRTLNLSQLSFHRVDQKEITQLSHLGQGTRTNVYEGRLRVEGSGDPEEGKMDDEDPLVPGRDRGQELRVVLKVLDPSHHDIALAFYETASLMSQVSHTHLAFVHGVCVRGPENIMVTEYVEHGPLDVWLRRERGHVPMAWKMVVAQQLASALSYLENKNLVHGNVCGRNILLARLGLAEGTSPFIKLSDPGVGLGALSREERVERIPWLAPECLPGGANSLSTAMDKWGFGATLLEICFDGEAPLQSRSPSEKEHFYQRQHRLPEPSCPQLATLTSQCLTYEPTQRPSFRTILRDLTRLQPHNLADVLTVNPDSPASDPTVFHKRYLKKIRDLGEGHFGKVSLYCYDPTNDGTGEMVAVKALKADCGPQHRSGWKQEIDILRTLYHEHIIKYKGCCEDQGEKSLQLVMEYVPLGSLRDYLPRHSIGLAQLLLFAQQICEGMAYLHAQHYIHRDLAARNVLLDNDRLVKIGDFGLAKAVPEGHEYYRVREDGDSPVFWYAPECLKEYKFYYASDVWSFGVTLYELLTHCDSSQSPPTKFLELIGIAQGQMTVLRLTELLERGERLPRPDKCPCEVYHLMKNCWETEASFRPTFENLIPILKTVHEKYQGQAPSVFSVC
T2 sequence (P52333 781-1124): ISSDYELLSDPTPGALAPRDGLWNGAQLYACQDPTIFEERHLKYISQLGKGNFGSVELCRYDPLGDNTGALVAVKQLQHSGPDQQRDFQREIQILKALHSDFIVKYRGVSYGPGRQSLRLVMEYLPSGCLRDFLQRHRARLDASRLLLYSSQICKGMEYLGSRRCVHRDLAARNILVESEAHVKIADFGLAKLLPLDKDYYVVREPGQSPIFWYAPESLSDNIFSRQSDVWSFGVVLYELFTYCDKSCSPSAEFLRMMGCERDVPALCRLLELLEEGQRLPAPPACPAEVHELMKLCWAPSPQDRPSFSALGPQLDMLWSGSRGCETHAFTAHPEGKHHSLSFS
T3 sequence (P23458 849-1154): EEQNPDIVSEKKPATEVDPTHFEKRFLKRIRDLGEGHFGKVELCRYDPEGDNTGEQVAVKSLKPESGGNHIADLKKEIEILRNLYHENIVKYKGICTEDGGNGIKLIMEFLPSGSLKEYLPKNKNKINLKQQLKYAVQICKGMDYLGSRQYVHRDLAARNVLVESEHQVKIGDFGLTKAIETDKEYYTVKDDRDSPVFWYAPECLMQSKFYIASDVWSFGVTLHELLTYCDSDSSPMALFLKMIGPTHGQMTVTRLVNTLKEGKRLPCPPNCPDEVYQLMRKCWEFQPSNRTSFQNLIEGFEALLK

IC50 (TYK2) | IC50 [1] | IC50 [2] | IC50 [3] | IC50 (TYK2; Table D1) | IC50 ([1]; Table D1) | IC50 ([2]; Table D1) | IC50 ([3]; Table D1) | Structure (SMILES)
581 nM | 276 nM | 2620 nM | 496 nM |  |  |  |  | Cn1cc(CC(=O)Nc2ccc3cc2CCc2cccc(c2)Nc2ncc(Cl)c(n2)N3)c2ccccc21 [Example C37, N-[6-Chloro-2,4,8,22-tetraazatetracyclo[14.3.1.1(3,7).1(9,13)]docosa-1(20),3(22),4,6,9(21),10,12,16,18-nonaen-12-yl]-2-(1-methyl-1H-indol-3-yl)acetamide trifluoroacetate]
 |  |  |  | > 400 nM | 235 nM | > 400 nM | 153 nM | O=C(COc1ccc2cc1CCc1cncc(c1)Nc1ncc(Cl)c(n1)N2)N1CCNCC1 [Example D229, 6-Chloro-12-(2-oxo-2-piperazin-1-ylethoxy)-2,4,8,18,22-pentaazatetracyclo[14.3.1.1(3,7).1(9,13)]docosa-1(20),3(22),4,6,9(21),10,12,16,18-nonaene tris(trifluoroacetate)]
 |  |  |  | 35 nM | 10 nM | 29 nM | 19 nM | CC(=O)N1CCC[C@H](CC(=O)Nc2ccc3cc2CCc2cccc(c2)Nc2ncc(Cl)c(n2)N3)C1 [Example D201, 2-[(3R)-1-Acetylpiperidin-3-yl]-N-[6-chloro-2,4,8,22-tetraazatetracyclo[14.3.1.1(3,7).1(9,13)]docosa-1(20),3(22),4,6,9(21),10,12,16,18-nonaen-12-yl]acetamide trifluoroacetate]
> 400 nM | > 400 nM | > 400 nM | 96 nM |  |  |  |  | Clc1cnc2nc1Nc1ccc(OCC3CCNC3)c(c1)CCc1cncc(c1)N2 (stereo not shown) [Example C55, 6-Chloro-12-(pyrrolidin-3-ylmethoxy)-2,4,8,18,22-pentaazatetracyclo[14.3.1.1(3,7).1(9,13)]docosa-1(20),3(22),4,6,9(21),10,12,16,18-nonaene trihydrochloride]
 |  |  |  | 13 nM | 14 nM | 147 nM | 9.2 nM | O=C(C[C@@H]1CCCN(C(=O)c2ccccc2)C1)Nc1ccc2cc1CCc1cncc(c1)Nc1ncc(Cl)c(n1)N2 [Example D206, 2-[(3S)-1-Benzoylpiperidin-3-yl]-N-[6-chloro-2,4,8,18,22-pentaazatetracyclo[14.3.1.1(3,7).1(9,13)]docosa-1(20),3(22),4,6,9(21),10,12,16,18-nonaen-12-yl]acetamide bis(trifluoroacetate)]
 |  |  |  | 71 nM | 14 nM | 69 nM | 46 nM | N#Cc1ccc(NC(=O)N2CCN(c3ccc4cc3CCc3cccc(c3)Nc3ncc(Cl)c(n3)N4)CC2)cc1 [Example D93, 4-[6-Chloro-2,4,8,22-tetraazatetracyclo[14.3.1.1(3,7).1(9,13)]docosa-1(20),3(22),4,6,9(21),10,12,16,18-nonaen-12-yl]-N-(4-cyanophenyl)piperazine-1-carboxamide bis(trifluoroacetate)]
 |  |  |  | 45 nM | 7.3 nM | 37 nM | 21 nM | CC(C)(C)NC(=O)N1CCN(c2ccc3cc2CCc2cccc(c2)Nc2ncc(Cl)c(n2)N3)CC1 [Example D84, N-(tert-Butyl)-4-[6-chloro-2,4,8,22-tetraazatetracyclo[14.3.1.1(3,7).1(9,13)]docosa-1(20),3(22),4,6,9(21),10,12,16,18-nonaen-12-yl]piperazine-1-carboxamide bis(trifluoroacetate)]
> 400 nM | 255 nM | > 400 nM | 216 nM |  |  |  |  | CC(=O)N1CCC(COc2ccc3cc2CCc2cncc(c2)Nc2ncc(Cl)c(n2)N3)C1 (stereo not shown) [Example C56, 12-[(1-Acetylpyrrolidin-3-yl)methoxy]-6-chloro-2,4,8,18,22-pentaazatetracyclo[14.3.1.1(3,7).1(9,13)]docosa-1(20),3(22),4,6,9(21),10,12,16,18-nonaene bis(trifluoroacetate)]
88 nM | 32 nM | > 400 nM | 24 nM |  |  |  |  | O=C(c1ccccc1)N1Cc2cccc(c2)Nc2ncc(Cl)c(n2)Nc2cccc1c2 [Example C22, 14-Benzoyl-6-chloro-2,4,8,14,22-pentaazatetracyclo[14.3.1.1(3,7).1(9,13)]docosa-1(20),3(22),4,6,9(21),10,12,16,18-nonaene]
 |  |  |  | 414 nM | 34 nM | > 1000 nM | 15 nM | O=C(CC1CN(C(=O)c2c[nH]nn2)C1)Nc1ccc2cc1CCc1cncc(c1)Nc1ncc(Cl)c(n1)N2 [Example D148, N-[6-Chloro-2,4,8,18,22-pentaazatetracyclo[14.3.1.1(3,7).1(9,13)]docosa-1(20),3(22),4,6,9(21),10,12,16,18-nonaen-12-yl]-2-[1-(1H-1,2,3-triazol-4-ylcarbonyl)azetidin-3-yl]acetamide bis(trifluoroacetate)]
 |  |  |  | 6.1 nM | 8.3 nM | 32 nM | 1.4 nM | O=C(C[C@H]1CCCNC1)Nc1ccc2cc1CCc1cccc(c1)Nc1ncc(Cl)c(n1)N2 [Example D193, N-[6-Chloro-2,4,8,22-tetraazatetracyclo[14.3.1.1(3,7).1(9,13)]docosa-1(20),3(22),4,6,9(21),10,12,16,18-nonaen-12-yl]-2-[(3R)-piperidin-3-yl]acetamidebis(trifluoroacetate)]
 |  |  |  | > 400 nM | 180 nM | > 400 nM | 68 nM | O=C(Nc1cccnc1)N1CCC(CCOc2ccc3cc2CCc2cncc(c2)Nc2ncc(Cl)c(n2)N3)CC1 [Example D182, 4-(2-{[6-Chloro-2,4,8,18,22-pentaazatetracyclo[14.3.1.1(3,7).1(9,13)]docosa-1(20),3(22),4,6,9(21),10,12,16,18-nonaen-12-yl]oxy}ethyl)-N-pyridin-3-ylpiperidine-1-carboxamide tris(trifluoroacetate)]
 |  |  |  | 276 nM | 44 nM | > 400 nM | 13 nM | O=C(OCc1ccccc1)N1CCC(CCNc2ccc3cc2CCc2cncc(c2)Nc2ncc(Cl)c(n2)N3)CC1 [Example D215, Benzyl 4-(2-{[6-chloro-2,4,8,18,22-pentaazatetracyclo[14.3.1.1(3,7).1(9,13)]docosa-1(20),3(22),4,6,9(21),10,12,16,18-nonaen-12-yl]amino}ethyl)piperidine-1-carboxylate]
 |  |  |  | > 400 nM | > 400 nM | > 400 nM | 255 nM | Cc1cc(C(=O)N2CCC(COc3ccc4cc3CCc3cncc(c3)Nc3ncc(Cl)c(n3)N4)CC2)no1 [Example D226, 6-Chloro-12-({1-[(5-methylisoxazol-3-yl)carbonyl]piperidin-4-yl}methoxy)-2,4,8,18,22-pentaazatetracyclo[14.3.1.1(3,7).1(9,13)]docosa-1(20),3(22),4,6,9(21),10,12,16,18-nonaene bis(trifluoroacetate)]
 |  |  |  | 268 nM | 87 nM | 169 nM | 295 nM | C[N+]1(C)CCN(c2ccc3cc2CCc2cccc(c2)Nc2ncc(Cl)c(n2)N3)CC1 [Example D86, 4-[6-Chloro-2,4,8,22-tetraazatetracyclo[14.3.1.1(3,7).1(9,13)]docosa-1(20),3(22),4,6,9(21),10,12,16,18-nonaen-12-yl]-1,1-dimethylpiperazin-1-ium bis(trifluoroacetate)]
371 nM | > 400 nM | > 400 nM | 102 nM |  |  |  |  | O=C(Nc1ccccc1)N1CCC(COc2ccc3cc2CCc2cncc(c2)Nc2ncc(Cl)c(n2)N3)C1 (stereo not shown) [Example C59, 3-({[6-Chloro-2,4,8,18,22-pentaazatetracyclo[14.3.1.1(3,7).1(9,13)]docosa-1(20),3(22),4,6,9(21),10,12,16,18-nonaen-12-yl]oxy}methyl)-N-phenylpyrrolidine-1-carboxamide bis(trifluoroacetate)]
 |  |  |  | 38 nM | 49 nM | > 400 nM | 14 nM | CC(=O)N1CCC(CCNc2ccc3cc2CCc2cncc(c2)Nc2ncc(Cl)c(n2)N3)CC1 [Example D219, N-[2-(1-Acetylpiperidin-4-yl)ethyl]-6-chloro-2,4,8,18,22-pentaazatetracyclo[14.3.1.1(3,7).1(9,13)]docosa-1(20),3(22),4,6,9(21),10,12,16,18-nonaen-12-amine tris(trifluoroacetate)]
96 nM | 23 nM | 346 nM | 37 nM |  |  |  |  | O=C(Cc1cccs1)Nc1ccc2cc1CCc1cccc(c1)Nc1ncc(Cl)c(n1)N2 [Example C42, N-[6-Chloro-2,4,8,22-tetraazatetracyclo[14.3.1.1(3,7).1(9,13)]docosa-1(20),3(22),4,6,9(21),10,12,16,18-nonaen-12-yl]-2-(2-thienyl)acetamide trifluoroacetate]
 |  |  |  | > 400 nM | 49 nM | > 400 nM | 43 nM | O=C(COc1ccc2cc1CCc1cncc(c1)Nc1ncc(Cl)c(n1)N2)N1CCN(c2noc3ccccc23)CC1 [Example D250, 12-{2-[4-(1,2-Benzisoxazol-3-yl)piperazin-1-yl]-2-oxoethoxy}-6-chloro-2,4,8,18,22-pentaazatetracyclo[14.3.1.1(3,7).1(9,13)]docosa-1(20),3(22),4,6,9(21),10,12,16,18-nonaene tris(trifluoroacetate)]
